In patent US20230270713A1, “Administration of Resiniferatoxin For Treatment of Bladder Pain or Bladder Cancer” (Sorrento Therapeutics, Inc., priority 2020, published 2023):

What was measured:
[1] = Tolerability of intravesical RTX in healthy cats (physical exam, blood count, chemistry); type: in vivo, cat; conditions: healthy cats, 5, 25 or 50 mcg intravesical, during or post administration
Method: To examine the effect of intravesical instillation of RTX on the bladder, 6 healthy cats, between the 2-5 years of age, were treated with either 5 (low dose), 25 (mid dose) or 50 mcg (high dose) of RTX (volume was 25 ml; concentrations were 0.2, 1, and 2 mcg/ml). These doses are considered equivalent to administration of 20, 100, or 200 mcg in a human with a volume of 100 ml. A seventh cat received saline only and served as the control. The bladders of the anesthetized cats were emptied and then flushed with sterile saline via a foley urinary catheter. Once the saline was removed, the treatment with RTX (test cats) or saline alone (control cat) was administered over 60 seconds and left in the bladder for 20 minutes.
A physical exam, complete blood count and chemistry parameters were performed on day 0, 7, and 14. Complete blood count and chemistry parameters were analyzed at the Clinical Pathology Laboratory at the University of Georgia. Food consumption and signs of abnormal urination were monitored through the study period.

[2] = Safety monitoring in FIC cats; type: in vivo, cat
Method: As a way of monitoring the safety of the experiment for the enrolled cats, a physical examination was performed on the cats on Days 14 and 28. Measurements for body weight, body temperature, heart rate and respiratory rate were recorded. Body weight was collected for all cohorts, while the remaining variables were collected for Cohort 1, which received the highest total dose of RTX (25 μg/25 mL). […] Results were also collected for complete blood count (CBC), serum chemistry, urinalysis and culture.

[3] = test system: dogs with bladder transitional cell carcinoma; experiment: Change in lower urinary tract signs in dogs with bladder TCC (Example F); type: in vivo, dog; conditions: for Improvement of at Least 1 Score, dogs n/N / Improvement of at Least 1 Score, percent of dogs / Improvement of at Least 2 Scores, dogs n/N / Improvement of at Least 2 Scores, percent of dogs / Improvement in at least 1 score (lower urinary tract signs), dogs n/N / Improvement in at least 1 score, percent of dogs / Improvement in at least 2 scores (lower urinary tract signs), dogs n/N / Improvement in at least 2 scores, percent of dogs: dogs with bladder TCC; for Improvement in at least 1 score (lower urinary tract signs), dogs n/N / Improvement in at least 1 score, percent of dogs / Improvement in at least 2 scores (lower urinary tract signs), dogs n/N / Improvement in at least 2 scores, percent of dogs: all RTX doses (25-100 μg)
Method: Pre-treatment with diphenhydramine HCl intramuscular (2 mg/kg) was administered 30-45 minutes prior to RTX administration. Enrolled dogs were anesthetized and were monitored by auscultation and chest movement observation. Heart rate and oxygenation were monitored using a pulse oximeter throughout the duration of anesthesia. Blood pressure was monitored. Body temperature was maintained using a heated water blanket or equivalent thermal barrier (e.g., Vetko). Lactated Ringers Solution (LRS), or other medically appropriate fluid therapy, were used to maintain adequate hydration (approximately 2 mL/kg/hr intravenous (IV)) and a fluid bolus of LRS (2-5 mL/kg IV) as needed.
RTX was administered as a one-time treatment into the bladder on Day 0 with the option of repeating RTX at a future study day. A Foley urinary catheter was placed using a sterile standard technique. An abdominal ultrasound was concurrently performed to ensure that the tip of the catheter was in the bladder lumen. Urine was removed using a catheter tipped syringe.
RTX was diluted in 0.9% NaCl and then infused into the bladder. The catheter was then flushed with 5-6 mL of 0.9% NaCl to ensure the entire IVP volume was administered. The Foley catheter was capped and remained in place for a period of 30 minutes post-infusion. The bladder was then emptied prior to removal of the Foley catheter. The timing of recovery was managed on an individual basis, but it was recommended to initiate recovery approximately 10 minutes after RTX infusion.
RTX total dose ranged from 25-100 μg (1.17-5.21 μg/kg). RTX was instilled at concentration of 1.0 μg/mL 2.0 μg/mL or 2.5 μg/mL.
Primary effectiveness variables: Evaluations of lower urinary tract signs, as reported by the owner, were used as the primary effectiveness endpoint for the study. The character of urination, frequency of urination (day), frequency of urination (night) and blood in urine (Knapp, 2010) were monitored. Blood in urine was assessed by owner through daily collection of first morning sample and the owner completed the “Owner urine collection log.” Comparisons were made for each parameter between Day 0 and subsequent study visits on Days 7 (±2), 14 (±2), 28 (±2), 56 (±2) and 84 (±2). Treatment success was defined as at least one grade improvement for each parameter.
At each study visit, the investigator graded lower urinary tract signs with input from the owner. Improvement in 1 or 2 grades are summarized by total RTX dose in Table 16 and then comparing those dogs receiving an RTX dose <3 μg/kg and 3 μg/kg in Table 17.

[4] = dogs with bladder TCC evaluable at Days 14-84

C=C(C)[C@]12C[C@@H](C)[C@@]34O[C@](Cc5ccccc5)(O[C@@H]1[C@@H]3C=C(COC(=O)Cc1ccc(O)c(OC)c1)C[C@]1(O)C(=O)C(C)=C[C@@H]41)O2 [RTX, resiniferatoxin]
Tolerability / clinical adverse effects [1]: well tolerated with no clinical adverse effects noted | complete blood count (CBC), serum chemistry, urinalysis and culture [2]: No significant changes were observed | Adverse events in other cohorts ([2]; Cohorts 2-4): considered unrelated to the treatment or not serious | body weight, body temperature, heart rate and respiratory rate ([2]; Days 14 and 28, body weight all cohorts, other variables Cohort 1 (25 μg/25 mL)): No clinically significant changes were observed | Tolerability ([2]; all doses, at administration and through 28-day follow-up): overall well tolerated | serious adverse events considered related to the treatment ([2]; death of a Cohort 1 cat (25 μg/25 mL)): One serious adverse event | dogs with improvement in at least 1 urinary symptom grade at each visit [3, 4]: more than 50% | dogs with improvement in at least 2 grades at each visit [3, 4]: more than 40% | Improvement of at Least 1 Score, dogs n/N ([3]; RTX <3 μg/kg, Day 7): 4/7 | Improvement of at Least 1 Score, percent of dogs ([3]; RTX <3 μg/kg, Day 7): (57.1%) | Improvement of at Least 2 Scores, dogs n/N ([3]; RTX <3 μg/kg, Day 7): 2/7 | Improvement of at Least 2 Scores, percent of dogs ([3]; RTX <3 μg/kg, Day 7): (28.6%) | Improvement of at Least 1 Score, dogs n/N ([3]; RTX <3 μg/kg, Day 14): 5/7 | Improvement of at Least 1 Score, percent of dogs ([3]; RTX <3 μg/kg, Day 14): (71.4%) | Improvement of at Least 2 Scores, dogs n/N ([3]; RTX <3 μg/kg, Day 14): 3/7 | Improvement of at Least 2 Scores, percent of dogs ([3]; RTX <3 μg/kg, Day 14): (42.9%) | Improvement of at Least 1 Score, dogs n/N ([3]; RTX <3 μg/kg, Day 28): 4/5 | Improvement of at Least 1 Score, percent of dogs ([3]; RTX <3 μg/kg, Day 28): (80.0%) | Improvement of at Least 2 Scores, dogs n/N ([3]; RTX <3 μg/kg, Day 28): 3/5 | Improvement of at Least 2 Scores, percent of dogs ([3]; RTX <3 μg/kg, Day 28): (60.0%) | Improvement of at Least 1 Score, dogs n/N ([3]; RTX <3 μg/kg, Day 56): 4/5 | Improvement of at Least 1 Score, percent of dogs ([3]; RTX <3 μg/kg, Day 56): (80.0%) | Improvement of at Least 2 Scores, dogs n/N ([3]; RTX <3 μg/kg, Day 56): 3/5 | Improvement of at Least 2 Scores, percent of dogs ([3]; RTX <3 μg/kg, Day 56): (60.0%) | Improvement of at Least 1 Score, dogs n/N ([3]; RTX <3 μg/kg, Day 84): 2/2 | Improvement of at Least 1 Score, percent of dogs ([3]; RTX <3 μg/kg, Day 84): (100.0%) | Improvement of at Least 2 Scores, dogs n/N ([3]; RTX <3 μg/kg, Day 84): 2/2 | Improvement of at Least 2 Scores, percent of dogs ([3]; RTX <3 μg/kg, Day 84): (100.0%) | Improvement of at Least 1 Score, dogs n/N ([3]; RTX >= 3 μg/kg, Day 7): 3/7 | Improvement of at Least 1 Score, percent of dogs ([3]; RTX >= 3 μg/kg, Day 7): (42.9%) | Improvement of at Least 2 Scores, dogs n/N ([3]; RTX >= 3 μg/kg, Day 7): 2/7 | Improvement of at Least 2 Scores, percent of dogs ([3]; RTX >= 3 μg/kg, Day 7): (28.6%) | Improvement of at Least 1 Score, dogs n/N ([3]; RTX >= 3 μg/kg, Day 14): 5/7 | Improvement of at Least 1 Score, percent of dogs ([3]; RTX >= 3 μg/kg, Day 14): (71.4%) | Improvement of at Least 2 Scores, dogs n/N ([3]; RTX >= 3 μg/kg, Day 14): 3/7 | Improvement of at Least 2 Scores, percent of dogs ([3]; RTX >= 3 μg/kg, Day 14): (42.9%) | Improvement of at Least 1 Score, dogs n/N ([3]; RTX >= 3 μg/kg, Day 28): 4/6 | Improvement of at Least 1 Score, percent of dogs ([3]; RTX >= 3 μg/kg, Day 28): (66.7%) | Improvement of at Least 2 Scores, dogs n/N ([3]; RTX >= 3 μg/kg, Day 28): 2/6 | Improvement of at Least 2 Scores, percent of dogs ([3]; RTX >= 3 μg/kg, Day 28): (33.3%) | Improvement of at Least 1 Score, dogs n/N ([3]; RTX >= 3 μg/kg, Day 56): 3/5 | Improvement of at Least 1 Score, percent of dogs ([3]; RTX >= 3 μg/kg, Day 56): (60.0%) | Improvement of at Least 2 Scores, dogs n/N ([3]; RTX >= 3 μg/kg, Day 56): 2/5 | Improvement of at Least 2 Scores, percent of dogs ([3]; RTX >= 3 μg/kg, Day 56): (40.0%) | Improvement of at Least 1 Score, dogs n/N ([3]; RTX >= 3 μg/kg, Day 84): 2/5 | Improvement of at Least 1 Score, percent of dogs ([3]; RTX >= 3 μg/kg, Day 84): 40.0% | Improvement of at Least 2 Scores, dogs n/N ([3]; RTX >= 3 μg/kg, Day 84): 1/5 | Improvement of at Least 2 Scores, percent of dogs ([3]; RTX >= 3 μg/kg, Day 84): 20.0% | Improvement in at least 1 score (lower urinary tract signs), dogs n/N ([3]; Day 14): 10/14 | Improvement in at least 1 score, percent of dogs ([3]; Day 14): 71.4% | Improvement in at least 2 scores (lower urinary tract signs), dogs n/N ([3]; Day 14): 7/14 | Improvement in at least 2 scores, percent of dogs ([3]; Day 14): 50.0% | Improvement in at least 1 score (lower urinary tract signs), dogs n/N ([3]; Day 28): 8/11 | Improvement in at least 1 score, percent of dogs ([3]; Day 28): 72.7% | Improvement in at least 2 scores (lower urinary tract signs), dogs n/N ([3]; Day 28): 5/11 | Improvement in at least 2 scores, percent of dogs ([3]; Day 28): 45.5% | Improvement in at least 1 score (lower urinary tract signs), dogs n/N ([3]; Day 56): 7/10 | Improvement in at least 1 score, percent of dogs ([3]; Day 56): 70.0% | Improvement in at least 2 scores (lower urinary tract signs), dogs n/N ([3]; Day 56): 5/10 | Improvement in at least 2 scores, percent of dogs ([3]; Day 56): 50.0% | Improvement in at least 1 score (lower urinary tract signs), dogs n/N ([3]; Day 84): 4/7 | Improvement in at least 1 score, percent of dogs ([3]; Day 84): 57.1% | Improvement in at least 2 scores (lower urinary tract signs), dogs n/N ([3]; Day 84): 3/7 | Improvement in at least 2 scores, percent of dogs ([3]; Day 84): 42.9% | dogs showing improved urine scores after a 2nd RTX administration ([3]; of the 6 dogs with bladder TCC that received a 2nd RTX administration): 1 dog
